One data set has as its system ddY-type mice. The data set is described as follows: Analgesic efficacy test (1): acetic acid writhing test. The format is in vivo. The conditions noted are these: Mus musculus, writhing number, mean ± standard error, 8 mice per group, read-out: Suppressive Rate; for inhibition in vivo at 10 mg/kg: oral single dose 10 mg/kg; for inhibition in vivo at 100 mg/kg: oral single dose 100 mg/kg. The source says:
A compound of the present invention was orally administered to mice, to carry out an analgesic efficacy test according to acetic acid writhing test. As an experimental animal, 4-week old male ddY-type mice were previously bred, and thereafter 8 mice per one group were used in the experiment. A solution or suspension prepared by dissolving or suspending a compound of the present invention in a 0.5% (w/v) aqueous CMC-Na solution was orally administered as a test substance in a single dose. While, to a control group, a 0.5% (w/v) aqueous CMC-Na solution was administered in the same manner After 25 minutes from administration, the mice were intraperitoneally administered with a 0.7% (v/v) acetic acid/physiological saline at the dose of 10 mL/kg. From 5 minutes thereafter, writhing number in a 10-minute period was counted, and a suppressive rate for each individual (mean±standard error) was calculated by the following formula: […]
In the test for significance difference, Bartlett's test was carried out in the comparison between multiple groups of the group administered with test substance with the control group. In the case of homoscedasticity, Dunnett's multiple comparison test of parametrics, and in the case of heteroscedasticity, Dunnett's multiple comparison test of non-parametrics were used. In addition, in the test of dose dependency, Jonckheere-Terpstra's test was used. In all cases, significance difference was considered to be found at P<0.05 (indicated as “*” in the table).
(Writhing tests count abdominal constrictions after an irritant is injected.)

The next data set relates to Chung model rat. The data set is described as follows: Analgesic efficacy test (2): Chung model rat, neuropathic pain model (allodynia, von Frey filament). It is filed as in vivo, rats. As to conditions: mean ± standard error. An outline of the steps:
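Male Wistar rats, left L5 spinal nerve ligation; used ≥14 days post-injury if 50% threshold was 1 g to <4 g, 7–8 per group. Single oral dose in 0.5% CMC-Na; von Frey 50% threshold (up-down method) at action peak, vs vehicle-treated nerve-injured controls, Dunnett's test, P<0.05.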

The mark [1] stands for this setting: oral 1 mg/kg, measurement point 90 minute (action peak).
Setting [2] is: oral 10 mg/kg, measurement point 90 minute (action peak).
Setting [3] is: oral 1 mg/kg, measurement point 30 minute (action peak).
[4] abbreviates: oral 10 mg/kg, measurement point 30 minute (action peak).

Structures are written as SMILES. Marks after values point to notes of the source that are not given here.

`O=C(/C=C/c1ccccc1F)NCCc1ccncc1` [Compound 3, (E)-3-(2-Fluorophenyl)-N-[2-(4-pyridyl)ethyl]-2-propenamide]: the melting point – broadly, the temperature of the solid-liquid transition – was 95 to 96 °C. For the same molecule, in the data set with ddY-type mice, the inhibition in vivo at 10 mg/kg is 44.4 ± 11.1% and the inhibition in vivo at 100 mg/kg was determined as 59 ± 8.1%. Also, in the data set with Chung model rat (setting [1]), the “50% Reaction Threshold, Group Administered with Test Substance, After Administration” value (shortened to “50% Reaction Threshold”) is 6.74 ± 1.04* g. Besides, in the data set with Chung model rat (setting [2]), the “50% Reaction Threshold” value is recorded as 10.06 ± 1.60* g.
Regarding `CN(C)CCCNC(=O)/C=C/c1ccccc1F.Cl` [Compound 12, (E)-N-(3-Dimethylaminopropyl)-3-(2-fluorophenyl)-2-propenamide hydrochloride], the melting point lay in the range of 99 to 100 °C. In addition, in the data set on ddY-type mice, the inhibition in vivo at 10 mg/kg was -4.3 ± 12% and the inhibition in vivo at 100 mg/kg amounted to 49.4 ± 14.5%. In addition, the “50% Reaction Threshold” value with Chung model rat (oral 1 mg/kg, measurement point 60 minute (action peak)) amounted to 4.64 ± 0.70 g. Further, the “50% Reaction Threshold” value in the data set with Chung model rat (oral 10 mg/kg, measurement point 60 minute (action peak)) came out at 5.00 ± 1.17 g.
In the case of `Cn1cccc1CCNC(=O)/C=C/c1ccccc1F` [Compound 8, (E)-3-(2-Fluorophenyl)-N-[2-(1-methyl-1H-pyrrol-2-yl)ethyl]-2-propenamide], the melting point was in the range of 93 to 94 °C. In addition, in the data set with ddY-type mice, the inhibition in vivo at 10 mg/kg was 8.5 ± 13.9% and the inhibition in vivo at 100 mg/kg was 28.1 ± 8.3%. Further, in the data set with Chung model rat (setting [1]), the “50% Reaction Threshold” value was 4.37 ± 0.53 g. In the data set with Chung model rat (setting [2]), the “50% Reaction Threshold” value is 5.57 ± 1.18* g.
As to `O=C(/C=C/c1ccccc1F)NCc1cccnc1` [Compound 2, (E)-3-(2-Fluorophenyl)-N-(3-pyridylmethyl)-2-propenamide], the melting point is 115 to 116 °C. In addition, in the data set on ddY-type mice, the inhibition in vivo at 10 mg/kg came out at 39.9 ± 10.4% and the inhibition in vivo at 100 mg/kg came out at 39.9 ± 10%. The “50% Reaction Threshold” value in the data set on Chung model rat (setting [3]) stood at 4.85 ± 0.78 g. Besides, the “50% Reaction Threshold” value in the data set with Chung model rat (setting [4]) is 7.76 ± 1.30* g.
The like results for `O=C(/C=C/c1ccccc1F)NCCN1CCCCC1` [Compound 4, (E)-3-(2-Fluorophenyl)-N-[2-(1-piperidyl)ethyl]-2-propenamide] were, in that order, 84 to 85 °C, 47 ± 7.8%, 49 ± 9.2%, 3.98 ± 0.21 g and 7.35 ± 0.95* g.

These data come from patent US9540338B2, “Substituted cinnamic acid amides for treating pain” (NIPPON ZOKI PHARMACEUTICAL CO., LTD., priority 2012, dated 2017).
